Assays:
[1] = target: T1, MAT2A (Homo sapiens, UniProt P31153); experiment: MAT2A enzymatic assay (MAT2A Inhibitor Enzymatic Screening Kit); assay type: biochemical; settings: MAT2A enzyme, colorimetric detection at 630 nm; read-out: Inhibitory activity against Enzyme (IC50: nM)
T1 construct: purchased BPS Bioscience
Method: The inhibitory effect of the test compounds on the enzymatic activity of MAT2A was determined using MAT2A Inhibitor Enzymatic Screening Kit (BPS Bioscience).
1) Test compounds were dissolved in DMSO and mixed well until the test compounds were completely dissolved. All compounds were diluted with DMSO to a starting concentration of 2 mM, and diluted at a 3-fold ratio to a total of 10 concentration gradients. Duplicate wells were set. The compounds were added to the reaction system at a ratio of 1:100 (20 μM of the maximum final concentration) during detection. 100× positive control (1 mM AGI-24512) and 100× negative control (100% DMSO) were prepared.
2) 200 nL of each of the diluted compounds were transferred to each well of the reaction plate (Corning 3702) using an Echo 550 pipetting system, and the reaction plate was sealed with a sealing film, and centrifuged at 1000 g for 1 minute. The final concentration of DMSO was 1%.
3) Preparation of 1×MAT2A enzyme reaction buffer: 1× volume of 5×MAT2A enzyme reaction buffer was mixed well with 4× volumes of water.
4) 2×MAT2A enzyme solution was prepared with 1×MAT2A enzyme reaction buffer.
5) A 10 μL of 2×MAT2A enzyme solution was added to each well of the 384-reaction plate (Corning 3702), and the plate was sealed with a sealing film.
6) The plate was centrifuged at 1000 g for 60 seconds and incubated at room temperature for 30 minutes.
7) A mixture of 2×L-Methionine and ATP was prepared with 1×MAT2A enzyme reaction buffer.
8) 10 μL of the mixture of 2×L-Methionine and ATP was added to each well of the 384-reaction plate (Corning 3702), and the plate was sealed with a sealing film. The total reaction system was 20 μL.
9) The plate was centrifuged at 1000 g for 60 seconds and incubated at room temperature for 60 minutes.
10) The assay buffer Colorimetric Detection Rebgent was prepared.
11) 20 μL of the assay buffer was added to each well. The plate was centrifuged at 1000 g for 30 seconds and reacted at room temperature for 15 minutes.
12) Fluorescence signal at 630 nm was detected by a multifunctional microplate reader (PerkinElmer, Nivo).

[2] = system: HCT116-WT cells; experiment: Cell proliferation inhibition, HCT116 wild-type (Cell Titer Glo, 5 days); assay type: cell-based; settings: Homo sapiens, HCT-116, 120 h, 5 days treatment, maximum inhibition rate <50% expressed as IC50 > maximum initial concentration, read-out: HCT116 MTAP+/+ cell proliferation inhibitory activity IC50:
Method: (§1) The specific operation procedures were as follows. Tumor cells were treated with test compounds for 5 days, and the effect of the test compounds on the proliferation of tumor cells was evaluated. HCT116-MTAP^−/− and wild-type control HCT116-WT (colorectal cancer cells) cells were seeded in a 384-well plate at a density of 600 cells/well, and at the same time, different concentrations of the test compounds (starting from 20 μM, 10 concentration gradients) were added. The cells were incubated at 37° C., 5% CO2, and saturated humidity for 5 days.
(§2) Cell proliferation was detected using an ATP-based Cell Proliferation Assay Kit (Cell Titer Glo, Promega Corporation). Cells were equilibrated at room temperature for 30 minutes and then treated with Cell Titer Glo reagent. The plate was then covered with aluminum foil and shaken for 15 minutes to allow mixing well and lysis. Chemiluminescence detection was performed using a multifunctional microplate reader (Envision 2105, PerkinElmer). A blank well (blank, cell-free) and a DMSO control well were set.
(§3) The inhibition rate (IR) of the test compounds was calculated using the following formula: […]
(§4) GraphPad Prism was used for graphing, data analysis and IC50 calculations.

[3] = system: HCT116-MTAP−/− cells; experiment: Cell proliferation inhibition, HCT116 MTAP-/- (Cell Titer Glo, 5 days); assay type: cell-based; settings: Homo sapiens, HCT-116, 120 h, 5 days treatment, read-out: HCT116 MTAP−/− cell proliferation inhibitory activity IC50:
Method: as §1, §2, §3, §4

T1 sequence (P31153 whole entry): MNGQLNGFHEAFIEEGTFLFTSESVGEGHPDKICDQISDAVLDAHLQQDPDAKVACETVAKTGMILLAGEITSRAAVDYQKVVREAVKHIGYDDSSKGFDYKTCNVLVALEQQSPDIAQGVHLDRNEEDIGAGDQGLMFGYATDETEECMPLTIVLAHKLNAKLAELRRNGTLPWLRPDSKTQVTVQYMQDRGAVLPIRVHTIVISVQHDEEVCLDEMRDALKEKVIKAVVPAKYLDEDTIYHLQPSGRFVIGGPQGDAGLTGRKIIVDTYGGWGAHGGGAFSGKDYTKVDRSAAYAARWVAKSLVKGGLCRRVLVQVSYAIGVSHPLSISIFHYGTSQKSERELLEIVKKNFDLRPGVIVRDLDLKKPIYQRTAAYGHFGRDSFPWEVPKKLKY

Structure (SMILES)	IC50 [1] [nM]	IC50 [2] [nM]	IC50 [3] [nM]
Cc1ncccc1-n1c(=O)nc2c3c(cc(Cl)cc31)CN2c1ccc(Cl)cc1 [Compound A39, 7-chloro-4-(4-chlorophenyl)-1-(2-methylpyridin-3-yl)-4,5-dihydropyrrolo[2,3,4-de]quinazolin-2(1H)-one]	≤ 50	1350	308
Cc1ncccc1-n1c(=O)nc2c3c(cc(Cl)cc31)CN2 [Compound A1, 7-chloro-1-(2-methylpyridin-3-yl)-4,5-dihydropyrrolo[2,3,4-de]quinazolin-2(1H)-one]	≤ 50	> 20000	199
Cc1ncccc1-n1c(=O)nc2c3c(cc(Cl)cc31)CN2c1ccc2nn(C)cc2c1 [Compound A38, 7-chloro-4-(2-methyl-2H-indazol-5-yl)-1-(2-methylpyridin-3-yl)-4,5-dihydropyrrolo[2,3,4-de]quinazolin-2(1H)-one]	≤ 50	> 20000	20
Cc1ncccc1-n1c(=O)nc2c3c(cc(C(F)(F)F)nc31)CCN2C [Compound C1, 4-methyl-1-(2-methylpyridin-3-yl)-8-(trifluoromethyl)-5,6-dihydro-1H-pyrimidino[4,5,6-ij][2,7]naphthyridin-2(4H)-one]	≤ 50		
Cc1ncccc1-n1c(=O)nc2c3c(cc(Cl)cc31)OCCN2 [Compound B2, 9-chloro-1-(2-methylpyridin-3-yl)-5,6-dihydro-1H-[1,4]oxazepino[5,6,7-de]quinazolin-2(4H)-one]	> 100		
Cc1ncccc1-n1c(=O)nc2c3c(cc(C(F)(F)F)nc31)CN2C [Compound A19]	> 100		
Cc1ncccc1-n1c(=O)nc2c3c(cc(Cl)cc31)CCCN2 [Compound B1, 9-chloro-1-(2-methylpyridin-3-yl)-4,5,6,7-tetrahydroazepino[2,3,4-de]quinazolin-2(1H)-one]	> 100		
CN1Cc2cc(Cl)cc3c2c1nc(=O)n3-c1cccnc1Cl (single isomer, unassigned) [Compound A16-P2, 7-chloro-4-methyl-1-(2-chloropyridin-3-yl)-4,5-dihydropyrrolo[2,3,4-de]quinazolin-2(1H)-one]	≤ 50		
Cc1ncccc1-n1c(=O)nc2c3c(cc(Cl)cc31)NCC(O)N2C (stereo not drawn) [Compound B3, 9-chloro-5-hydroxy-4-methyl-1-(2-methylpyridin-3-yl)-4,5,6,7-tetrahydro-[1,4]diazepino[5,6,7-de]quinazolin-2(1H)-one]	50 to 100		
Cc1ncccc1-n1c(=O)nc2c3c(cc(Cl)cc31)CN2c1ccccc1 [Compound A3, 7-chloro-4-phenyl-1-(2-methylpyridin-3-yl)-4,5-dihydropyrrolo[2,3,4-de]quinazolin-2(1H)-one]	≤ 50		
COc1ncccc1-n1c(=O)nc2c3c(cc(Cl)cc31)CN2C [Compound A40, 7-chloro-1-(2-methoxypyridin-3-yl)-4-methyl-4,5-dihydropyrrolo[2,3,4-de]quinazolin-2(1H)-one]	50 to 100		
CN1Cc2cc(Cl)cc3c2c1nc(=O)n3-c1cccnc1Cl [Compound A16, 7-chloro-4-methyl-1-(2-chloropyridin-3-yl)-4,5-dihydropyrrolo[2,3,4-de]quinazolin-2(1H)-one]	≤ 50	> 20000	112
Cc1ncccc1-n1c(=O)nc2c3c(cc(Cl)cc31)CN2C [Compound A2, 7-chloro-4-methyl-1-(2-methylpyridin-3-yl)-4,5-dihydropyrrolo[2,3,4-de]quinazolin-2(1H)-one]	≤ 50	> 20000	45
CN1Cc2cc(C(F)(F)F)nc3c2c1nc(=O)n3-c1cccnc1Cl [Compound A29]	> 100		
